What was measured:
[1] = target: T1, P2Y12 receptor (Homo sapiens, UniProt Q9H244); experiment: Functional inhibition of 2-Me-S-ADP induced P2Y12 signalling (35S-GTPγS, cell membranes); assay type: biochemical; details: membranes from P2Y12 transfected CHO-cells, EC80 concentration of agonist 2-methyl-thio-adenosine diphosphate, 30° C. for 45 min
T1 construct: expressed in transfected cells; host or cells: CHO cells (membranes)
Description: Functional inhibition of the P2Y12 receptor can be measured by in vitro assays using cell membranes from P2Y12 transfected CHO-cells, the methodology is indicated below.
Functional inhibition of 2-Me-S-ADP induced P2Y12 signalling: 5 μg of membranes were diluted in 200 μl of 200 mM NaCl, 1 mM MgCl2, 50 mM HEPES (pH 7.4), 0.01% BSA, 30 μg/ml saponin and 10 μM GDP. To this was added an EC80 concentration of agonist (2-methyl-thio-adenosine diphosphate), the required concentration of test compound and 0.1 μCi ^35S-GTPγS. The reaction was allowed to proceed at 30° C. for 45 min. Samples were then transferred on to GF/B filters using a cell harvester and washed with wash buffer (50 mM Tris (pH 7.4), 5 mM MgCl2, 50 mM NaCl). Filters were then covered with scintillant and counted for the amount of ^35S-GTPγS retained by the filter. Maximum activity was that determined in the presence of the agonist and minimum activity in the absence of the agonist following subtraction of the value determined for nonspecific activity. The effect of compounds at various concentrations was plotted according to the equation
y=A+((B−A)/(1+((C/x)̂D)))
and IC50 estimated where A is the bottom plateau of the curve i.e. the final minimum y value B is the top of the plateau of the curve i.e. the final maximum y value C is the x value at the middle of the curve. […]

[2] = Moisture adsorption of crystalline form on storage at 80% RH; assay type: physicochemical; details: stored at 80% RH (ambient)
Description: The crystalline forms may be further characterised by the presence of one or more of the additional properties listed below: • (i) for Form I • (I) when characterised by thermogravimetric analysis, a weight loss of approx. 0.8% occurs in the range from 25° C. up to 205° C., and/or • (II) when characterised by differential scanning calorimetry, at a heating rate of 10° C. per minute in a closed cup with a pinhole under flowing nitrogen, a melting temperature (Tm) having an onset at about 194° C. and/or an associated endotherm of melting of about 96 J/g; and/or • (III) when stored at 80% RH (ambient) less than 0.2% moisture is adsorbed, • (i) […] • (I) when characterised by thermogravimetric analysis, a weight loss of approx. 0.2% occurs in the range from 25° C. up to 205° C., and/or • (II) when characterised by differential scanning calorimetry, at a heating rate of 10° C. per minute in a closed cup with a pinhole under flowing nitrogen, a melting temperature (Tm) having an onset at about 193° C. and/or an associated endotherm of melting of about 105 J/g.

T1 sequence (Q9H244 whole entry): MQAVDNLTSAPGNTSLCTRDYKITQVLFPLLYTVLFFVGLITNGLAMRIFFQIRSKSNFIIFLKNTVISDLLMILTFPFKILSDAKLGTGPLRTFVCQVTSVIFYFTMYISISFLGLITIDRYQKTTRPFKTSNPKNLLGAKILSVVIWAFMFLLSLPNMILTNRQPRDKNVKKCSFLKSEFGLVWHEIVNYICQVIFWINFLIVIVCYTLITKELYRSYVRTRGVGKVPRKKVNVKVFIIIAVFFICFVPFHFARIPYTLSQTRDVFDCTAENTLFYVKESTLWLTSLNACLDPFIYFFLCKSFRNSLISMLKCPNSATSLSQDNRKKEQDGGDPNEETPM

IC50 [1] [nM]	moisture adsorbed [2]	Compound
250	–	CCOC(=O)c1cc(C#N)c(N2CCC(C(=O)NS(=O)(=O)Cc3ccc(C(C)C)cc3)CC2)nc1C [Example 119, Ethyl 5-cyano-6-[4-({[(4-isopropylbenzyl)sulfonyl]amino}carbonyl)piperidin-1-yl]-2-methylnicotinate]
–	less than 0.2%	CCOC(=O)c1cc(C#N)c(N2CCC(C(=O)NS(=O)(=O)Cc3ccccc3)CC2)nc1C [Form I, 6-(4-{[(benzylsulfonyl)amino]carbonyl}piperidin-1-yl)-5-cyano-2-methylnicotinic acid ethyl ester]
460	–	Cc1nc(N2CC(C(=O)NS(=O)(=O)Cc3cccc(F)c3)C2)c(C#N)cc1C(=O)OC(C)C [Example 91, Isopropyl 5-cyano-6-[3-({[(3-fluorobenzyl)sulfonyl]amino}carbonyl)azetidin-1-yl]-2-methylnicotinate]
